Assay results published in US5397794A, “Use of thiazoloisoindolinone derivatives as antiviral medicaments” (Boehringer Mannheim GmbH, priority 1990, dated 1995).

Molecular target: T1, HIV-RT (purified RT from HIV-1, expressed in E. coli) (Human immunodeficiency virus type 1 group M subtype B, UniProt P04585)
T1 construct: purified RT from HIV-1; made in house; host or cells: E. coli
Assay: Inhibition of HIV-1 reverse transcriptase (RT), [3H]-thymidine-5'-triphosphate incorporation
Type: biochemical
Settings: purified recombinant HIV-1 RT; HIV-LTR in vitro transcript template, 18 mer primer
Description: Inhibition of reverse transcriptase (RT) by 9b-phenyl-2,3-dihydrothiazolo[2,3-a]isoindol-5(9bH)-one.
The screening test system contains the purified RT from HIV-1, which was expressed by gene-technological methods in E. coli, as well as the components of the initiation complex, such as the in vitro transcripts of the HIV-LTR's with the neighbouring primer binding site as template and an 18 mer oligo-nucleotide as primer complementary to the primer binding site. The [^-3 H]-thymidine-5'-triphosphate incorporation was measured by counting in a β-counter.

First: Cc1cn([C@H]2C[C@H](N=[N+]=[N-])[C@@H](CO[P@](=O)(O)O[P@](=O)(O)OP(=O)(O)O)O2)c(=O)[nH]c1=O [AZT-TP, 3'-azido-3'-desoxythymidine-5'-triphosphate, reference compound]
Second: Cc1cccc(C23SCCN2C(=O)c2ccccc23)c1C (stereo not shown) [Example 3.8]
The IC50 of the first is 7.5-fold higher: 6 µM for the first, 0.8 µM for the second. The second is the more potent here.

`O=C1c2ccccc2C2(c3ccc(Cl)cc3)SCCN12` (stereo not shown) [Example 3.2] and `O=C1c2ccccc2C2(c3ccc(Cl)c(Cl)c3)SCCN12` (stereo not shown) [Example 3.4] are the same in IC50: 4 µM for the first, 4 µM for the second.

`COc1cccc(C23SCCN2C(=O)c2ccccc23)c1` (stereo not shown) [Example 3.12] and `O=C1c2ccccc2C2(c3cccc(C(F)(F)F)c3)SCCN12` (stereo not shown) [Example 3.15] are within 1.5-fold of each other in IC50: 1.1 µM for the first, 1 µM for the second.

`Cc1ccc(C)c(C23SCCN2C(=O)c2ccccc23)c1` (stereo not shown) [Example 3.18] and `O=C1c2ccccc2C2(c3ccccc3)SCCN12` (stereo not shown) [Example 3.30, 9b-phenyl-2,3-dihydrothiazolo[2,3-a]isoindol-5(9bH)-one] are within 1.5-fold of each other in IC50: 0.95 µM for the first, 0.7 µM for the second.

`O=C1c2ccccc2C2(c3ccccc3)N1CCS2(=O)=O` (stereo not shown) [Example 4, 9b-Phenyl-2,3-dihydrothiazolo[2,3-a]isoindol-5(9bH)-one 1,1-dioxide] gave an IC50 of 1.4 µM.

Tested on: not given
Assay: not given
Settings: Hirsch, J. Infec. Dis. 157, 427-431 (1988); cited from earlier work

In the case of `Cc1cn([C@H]2C[C@H](N=[N+]=[N-])[C@@H](CO)O2)c(=O)[nH]c1=O` [AZT, 3'-azido-3'-desoxythymidine], the therapeutic range is given as “very narrow therapeutic range”.
